Results taken from patent publication US20120121540A1 (priority 2007, published 2012).

Assay: HCV replicon assay (luciferase reporter, ET cell line)
Format: cell-based
Conditions: Hepatitis C virus, HCV replicon luciferase activity in ET cells
Protocol: A cell line, ET (Huh-lucubineo-ET) is used for screening of compounds for inhibiting HCV RNA dependent RNA polymerase. The ET cell line is stably transfected with RNA transcripts harboring a I389 luc-ubi-neo/NS3-3′/ET; replicon with firefly luciferase-ubiquitin-neomycin phosphotransferase fusion protein and EMCV-IRES driven NS3-5B polyprotein containing the cell culture adaptive mutations (E1202G; T1280I; K1846T) (Krieger at al, 2001 and unpublished). The ET cells are grown in DMEM (Dulbeco's Modified Eagle's Medium), supplemented with 10% fetal calf serum, 2 mM Glutamine, Penicillin (100 IU/mL)/Streptomycin (100 μg/mL), 1× nonessential amino acids, and 250 μg/mL G418 (“Geneticin”). They are all available through Life Technologies (Bethesda, Md.). The cells are plated at 0.5−1.0×10^4 cells/well in the 96 well plates and incubated for 24 hrs before adding test compound. The compounds are added to the cells to achieve a final concentration of 0.1 nM to 50 μm and a final DMSO (dimethylsulfoxide) concentration of 0.5%. Luciferase activity is measured 48-72 hours later by adding a lysis buffer and the substrate (Catalog number Glo-lysis buffer E2661 and Bright-Glo luciferase system E2620 Promega, Madison, Wis.). Cells should not be too confluent during the assay. Percent inhibition of replication data is plotted relative to no compound control. Under the same condition, cytotoxicity of the compounds are determined using cell proliferation reagent, WST-1 (Roche, Germany). The compounds showing antiviral activities, but no significant cytotoxicities are chosen to determine EC50 and TC50. For these determinations, a 10 point, 2-fold serial dilution for each compound was used, which spans a concentration range of 1000 fold. EC50 and similarly TC50 values were calculated by fitting % inhibition at each concentration to the following equation:
% inhibition=100%/[(EC50/[I])^b+1]
where b is Hill's coefficient.
% inhibition values at a specific concentration, […] for example, can also be derived from the equation above.
Work on O=C(c1nc2c(C(F)(F)F)cc(-c3ccoc3)cn2c1Cl)N1CC=C(c2cnoc2)CC1 [Compound 582, (3-Chloro-6-furan-3-yl-8-trifluoromethyl-imidazo[1,2-a]pyridin-2-yl)-(4-isoxazol-4-yl-3,6-dihydro-2H-pyridin-1-yl)-methanone] yielded an inhibition at 10 µM of 91.2%. C/C=C\c1c(C(=O)NCc2cccs2)nc2c(C(F)(F)F)cc(-c3cccc(F)c3)cn12 [Compound 300, 6-(3-Fluoro-phenyl)-3-propenyl-8-trifluoromethyl-imidazo[1,2-a]pyridine-2-carboxylic Acid(thiophen-2-ylmethyl)-amide] showed an inhibition at 10 µM of 76.9%. In the case of O=C(NCc1ccc(OC(F)(F)F)cc1)c1nc2c(C(F)(F)F)cc(-c3ccco3)cn2c1Cl [Compound 204, 3-Chloro-6-furan-2-yl-8-trifluoromethyl-imidazo[1,2-a]pyridine-2-carboxylic acid 4-trifluoromethoxy-benzylamide], the inhibition at 10 µM is reported as 31.7%. O=C(NCc1ccccc1C(F)(F)F)c1nc2c(C(F)(F)F)cc(-c3ccco3)cn2c1Cl [Compound 179, 3-Chloro-6-furan-2-yl-8-trifluoromethyl-imidazo[1,2-a]pyridine-2-carboxylic acid 2-trifluoromethyl-benzylamide] gave an inhibition at 10 µM of 37.5%. Molecule O=C(NCc1cccs1)c1nc2c(C(F)(F)F)cc(-c3cn[nH]c3)cn2c1Cl [Compound 290, 3-Chloro-6-(1H-pyrazol-4-yl)-8-trifluoromethyl-imidazo[1,2-a]pyridine-2-carboxylic Acid(thiophen-2-ylmethyl)-amide] has an inhibition at 10 µM of 93.9%. O=C(NCc1cccs1)c1nc2c(Cl)cc(-c3ccccc3)cn2c1Cl [Compound 370, 3,8-Dichloro-6-phenyl-imidazo[1,2-a]pyridine-2-carboxylic Acid (thiophen-2-ylmethyl)-amide] gave an inhibition at 10 µM of 80.4%. With FC(F)(F)c1cc(-c2ccco2)cn2c(Cl)c(-c3nc(Cc4ccccc4)no3)nc12 [Compound 656, 2-(3-Benzyl-[1,2,4]oxadiazol-5-yl)-3-chloro-6-furan-2-yl-8-trifluoromethyl-imidazo[1,2-a]pyridine] the inhibition at 10 µM was 34.1%. O=C(NCc1cccs1)c1nc2c(C(F)(F)F)cc(-c3cccnc3)cn2c1Cl [Compound 208, 3-Chloro-6-pyridin-3-yl-8-trifluoromethyl-imidazo[1,2-a]pyridine-2-carboxylic acid (thiophen-2-ylmethyl)-amide] gave an inhibition at 10 µM of 88.5%. Work on O=C(NCc1cccs1)c1nc2c(C(F)(F)F)cc(-c3ncon3)cn2c1Cl [Compound 311, 3-Chloro-6-[1,2,4]oxadiazol-3-yl-8-trifluoromethyl-imidazo[1,2-a]pyridine-2-carboxylic Acid (thiophen-2-ylmethyl)-amide] yielded an inhibition at 10 µM of 83.2%. N#Cc1cc(-c2ccccc2)cc2cc(C(=O)NCc3cccs3)nn12 [Compound 108, 7-Cyano-5-phenyl-pyrazolo[1,5-a]pyridine-2-carboxylic acid (thiophen-2-ylmethyl)-amide] showed an inhibition at 10 µM of 52.2%. For O=C(NCc1cccs1)c1cc2cc(-c3ccco3)cc(Cl)c2[nH]1 [Compound 105, 7-Chloro-5-furan-2-yl-1H-indole-2-carboxylic acid (thiophen-2-ylmethyl)-amide], the inhibition at 10 µM was 58.2%. In the case of O=C(NCc1cccs1)c1[nH]c2c(C(F)(F)F)cc(-c3ccccc3)cc2c1Cl [Compound 104, 3-Chloro-5-phenyl-7-trifluoromethyl-1H-indole-2-carboxylic Acid (thiophen-2-ylmethyl)-amide], the inhibition at 10 µM is reported as 44%. COC(=O)C(NC(=O)c1nc2c(C(F)(F)F)cc(-c3ccco3)cn2c1Cl)c1cccs1 (stereo not drawn) [Compound 166, [(3-Chloro-6-furan-2-yl-8-trifluoromethyl-imidazo[1,2-a]pyridine-2-carbonyl)-amino]-thiophen-2-yl-acetic acid methyl ester] gave an inhibition at 10 µM of 49.1%. In the case of O=C(NCc1cccs1)c1nc2c(C(F)(F)F)cc(C3=CCCCO3)cn2c1Cl [Compound 284, 3-Chloro-6-(5,6-dihydro-4H-pyran-2-yl)-8-trifluoromethyl-imidazo[1,2-a]pyridine-2-carboxylic Acid (thiophen-2-ylmethyl)-amide], the inhibition at 10 µM is reported as 98.8%. In the case of CN1CCN(C(=O)c2nc3c(C(F)(F)F)cc(-c4ccco4)cn3c2Cl)C(c2ccccc2)C1 (stereo not drawn) [Compound 320, (3-Chloro-6-furan-2-yl-8-trifluoromethyl-imidazo[1,2-a]pyridin-2-yl)-(4-methyl-2-phenyl-piperazin-1-yl)-methanone], the inhibition at 10 µM is reported as 0.6%. In the case of O=C(c1nc2c(C(F)(F)F)cc(-c3ccoc3)cn2c1Br)N1CCC(c2cccc(F)c2)C1 (stereo not drawn) [Compound 446, (3-Bromo-6-furan-3-yl-8-trifluoromethyl-imidazo[1,2-a]pyridin-2-yl)-(3-(3-fluoro-phenyl)-pyrrolidin-1-yl)-methanone], the inhibition at 10 µM is reported as 95.8%. Molecule O=C(NCCc1ccccn1)c1nc2c(C(F)(F)F)cc(-c3ccoc3)cn2c1Cl [Compound 554, 3-Chloro-6-furan-3-yl-8-trifluoromethyl-imidazo[1,2-a]pyridine-2-carboxylic acid (2-pyridin-2-yl-ethyl)-amide] has an inhibition at 10 µM of 97.4%. In the case of O=C(NCc1cccs1)c1nc2c(C(F)(F)F)cc(C#Cc3ccccc3)cn2c1Cl [Compound 294, 3-Chloro-6-phenylethynyl-8-trifluoromethyl-imidazo[1,2-a]pyridine-2-carboxylic Acid(thiophen-2-ylmethyl)-amide], the inhibition at 10 µM is reported as 41.5%. For O=C(NCc1cccs1)c1nc2c(-c3ncon3)cc(-c3ccoc3)cn2c1Cl [Compound 374, 3-Chloro-6-furan-3-yl-8-[1,2,4]oxadiazol-3-yl-imidazo[1,2-a]pyridine-2-carboxylic Acid (thiophen-2-ylmethyl)-amide], the inhibition at 10 µM was 28.6%. Work on O=C(NCc1cccs1)c1nc2c(C(F)(F)F)cc(-c3cnn(Cc4ccccc4)c3)cn2c1Cl [Compound 285, 6-(1-Benzyl-1H-pyrazol-4-yl)-3-chloro-8-trifluoromethyl-imidazo[1,2-a]pyridine-2-carboxylic Acid (thiophen-2-ylmethyl)-amide] yielded an inhibition at 10 µM of 71.8%. In the case of O=S(=O)(Cc1ccccc1)NCc1cn2cc(-c3ccoc3)cc(C(F)(F)F)c2n1 [Compound 396], the inhibition at 10 µM is reported as 94.2%. With O=C(NCc1ccoc1)c1nc2c(C(F)(F)F)cc(-c3ccco3)cn2c1Cl [Compound 159, 3-Chloro-6-furan-2-yl-8-trifluoromethyl-imidazo[1,2-a]pyridine-2-carboxylic acid (furan-3-ylmethyl)-amide] the inhibition at 10 µM was 94.8%. In the case of O=C(c1nc2c(C(F)(F)F)cc(-c3ccoc3)cn2c1Cl)N1CCN(c2ccccc2F)CC1 [Compound 529, (3-Chloro-6-furan-3-yl-8-trifluoromethyl-imidazo[1,2-a]pyridine-2-yl)-[4-(2-fluoro-phenyl)-piperazin-1-yl]-methanone], the inhibition at 10 µM is reported as 78.9%. Work on O=C(NCc1nccs1)c1nc2c(C(F)(F)F)cc(-c3ccco3)cn2c1Cl [Compound 182, 3-Chloro-6-furan-2-yl-8-trifluoromethyl-imidazo[1,2-a]pyridine-2-carboxylic acid (thiazol-2-ylmethyl)-amide] yielded an inhibition at 10 µM of 80.8%. In the case of O=C(c1nc2c(C(F)(F)F)cc(-c3cn[nH]c3)cn2c1Cl)N1CC=C(c2nccs2)C1 [Compound 439, [3-Chloro-6-(1H-pyrazol-4-yl)-8-trifluoromethyl-imidazo[1,2-a]pyridin-2-yl]-(3-thiazol-2-yl-2,5-dihydro-pyrrol-1-yl)-methanone], the inhibition at 10 µM is reported as 99.2%. Work on O=C(NCc1cccs1)c1nn2c(Br)cc(-c3ccccc3)cc2c1Br [Compound 113, 3,7-dibromo-5-phenyl-pyrazolo[1,5-a]pyridine-2-carboxylic Acid (thiophen-2-ylmethyl)-amide] yielded an inhibition at 10 µM of 77.3%. With CC(C)c1cc(-c2ccccc2)cn2c(Br)c(C(=O)NCc3cccs3)nc12 [Compound 645, 3-Bromo-8-isopropyl-6-phenyl-imidazo[1,2-a]pyridine-2-carboxylic acid (thiophen-2-ylmethyl)-amide] the inhibition at 10 µM was 87.1%. With O=C(c1cn2cc(-c3cn[nH]c3)cc(C(F)(F)F)c2n1)N1CCC(c2ccc(F)cc2)C1 (stereo not drawn) [Compound 255, [3-(4-Fluoro-phenyl)-pyrrolidin-1-yl]-[6-(1H-pyrazol-4-yl)-8-trifluoromethyl-imidazo[1,2-a]pyridin-2-yl]-methanone] the inhibition at 10 µM was 76.6%. Molecule Nc1cccc(C2CCN(C(=O)c3nc4c(C(F)(F)F)cc(-c5ccoc5)cn4c3Cl)C2)c1 (stereo not drawn) [Compound 462, [3-(3-Amino-phenyl)-pyrrolidin-1-yl]-(3-chloro-6-furan-3-yl-8-trifluoromethyl-imidaz [1,2-a]pyridin-2-yl)-methanone] has an inhibition at 10 µM of 86.5%. Work on C=C(C)c1c(C(=O)NCc2cccs2)nc2c(C(F)(F)F)cc(-c3cccc(F)c3)cn12 [Compound 302, 6-(3-Fluoro-phenyl)-3-isopropenyl-8-trifluoromethyl-imidazo[1,2-a]pyridine-2-carboxylic Acid (thiophen-2-ylmethyl)-amide] yielded an inhibition at 10 µM of 69.5%.
